# Reference: patent US20040087553A1, “Hypoestoxides, derivatives and agonists thereof for use in the treatment and prophylaxis of hyperlipidemia” (Paraquest, Inc., priority 2002, published 2004)
# Assay: Effect of oral hypoestoxide on blood cholesterol and triglyceride levels in a beagle dog (standard colorimetric method on sera)
# Format: in vivo
# Settings: 30 mg/kg oral once daily for seven days; for Triglycerides / Cholesterol: dog serum; for Triglycerides: day −1 value 300; for Cholesterol: day −1 value 308
# Protocol: In one example, hypoestoxide was administered orally to a 2-year-old female beagle dog at a dose of 30 mg/kg, once daily for seven days. Blood cholesterol and triglyceride levels were determined in sera obtained at days 1, 3, 7 and 14, respectively. Assays were performed by a standard colorimetric method by a commercial laboratory (Antech Diagnostics, Irvine, Calif.).
structure (smiles),measurement,setting,value
C=C1C(=O)C[C@H]2C[C@@H]3O[C@@]3(C)CC[C@@H]3O[C@@]3(C)C[C@@H](OC(C)=O)[C@H]1C2(C)C [hypoestoxide],blood cholesterol and triglyceride levels (effect in words),beagle dog,significantly lowered
same,Triglycerides,"day 1, normal reference range 29-291",296 mg/dL
same,Cholesterol,"day 1, normal reference range 92-324",122 mg/dL
same,Triglycerides,day 3,70 mg/dL
same,Cholesterol,day 3,130 mg/dL
same,Triglycerides,day 7,33 mg/dL
same,Cholesterol,day 7,124 mg/dL
same,Triglycerides,day 14,51 mg/dL
same,Cholesterol,day 14,134 mg/dL
